Source: patent US6949648B2, “Condensed pyrazole derivatives, process for producing the same and use thereof” (Takeda Pharmaceutical Company Limited, priority 2000, dated 2005)
Like-named read-outs stand apart in the source and are kept apart here. Marks after values point to notes of the source that are not given here. Values belong to the molecule of their own block, whether it stands above or below them.

How the values were obtained:
adjuvant arthritis = assay: Anti-adjuvant-arthritic activity; format: in vivo, SD rats; conditions: 10 mg/kg orally once a day for 14 days; volume of left hind limb (not injected); day of reading not given
Description: Anti-Adjuvant-Arthritic Activity
Male SD origin male-rats (6 weeks old, CLEA Japan, 1 group: n=7) were used. The adjuvant arthritis method was conducted according to the method of Newbould B. B. et. al., (Brit. J. Pharmacol. Chemother., vol. 21, p. 127, 1963). Complete Freund's adjuvant (a suspension of killed tubercule bacillus in liquid paraffin at a concentration of 0.5%, 0.05 mL) was injected into the right hind limb footpad intracutaneouly to induce multiple arthritis. Samples were administered orally (10 mg/kg, b.w.), once a day for 14 days from the day before the injection day 0 to day 13. Volume of the left hind limb (not injected) was determined by the foot-volume measurement apparatus manufactured by Ugo Basile, on the day just before the adjuvant shot (Day 0), Day 10 and Day 14, and repression rate (%) was calculated comparing the values between the sample group and the control group.

[1] = tested on: mucosa of small intestine; assay: Disorder of mucosa of small intestine; format: in vivo, SD rats; conditions: 100 mg/kg orally, freely fed rats, 6 hours after dosing
Description: Disorder of Mucosa of Small Intestine Male SD origin male-rats (7 weeks old, CLEA Japan) were used. To the rats freely fed, samples were administered orally (5 mL/kg, b.w.). After 5.5 hours from the administration, Evan's Blue (0.5% Evan's Blue/saline) was injected (1 mL/rat) intravenously under no anesthesia. After 30 minutes from the shot, the intestine was removed by celiotomy and the area thereof facing mesentery was cut open. After removal of intestinal content, the spots in the intestine dyed by Evan's Blue were measured under a stereomicroscope, and the total length (mm) of the spots was determined by a counter and recorded.

[2] = tested on: carrageenin edema of right hind limb plantar; assay: Anti-inflammatory activity, carrageenin edema method; format: in vivo, SD-rats; conditions: po, 10 mg/kg orally
Description: Anti-Inflammatory Activity
Male SD-rats (6 weeks old, CLEA Japan) were used (1 group, n=6). The Carrageenin edema method was performed according to the method of Winter et. al., (Proc. Soc. Exp. Biol. Med., vol. 111, p. 544-547, 1962). After the volume of right hind limb plantar of the rat was determined, a sample was orally administered (1.0 mL, b.w.), and immediately water was orally administered in an amount of 5 mL/rat. Meanwhile, only the solvent of the sample was orally administered to rats in control. After 1 hour, a solution of 1% carrageenin in saline (0.05 mL) was injected into the right hind limb plantar subcutaneously to induce edema. After 2 and 3 hours later from the injection, volumes of the right hind limb plantar were determined. The repression rate (%) of the sample was calculated by comparing the difference of the volumes of the plantar before the carrageenin shot and 2 and 3 hours after the shot between the sample groups and the control groups.

human COX-2 = target: T1, human COX-2 (Homo sapiens, UniProt P35354); assay: Determination of COX-2 inhibitory activity (microsome fraction, chemiluminescence); format: biochemical; conditions: microsome fraction 20 μg, arachidonic acid, 37° C. 25 minutes preincubation; read-out: Repression rate IC50 (μM) COX-2
T1 construct: made in house; host or cells: Sf-21 insect cells (recombinant baculovirus BAC-COX2, pFASTBAC1); microsome fraction
T1 sequence (P35354 18-604): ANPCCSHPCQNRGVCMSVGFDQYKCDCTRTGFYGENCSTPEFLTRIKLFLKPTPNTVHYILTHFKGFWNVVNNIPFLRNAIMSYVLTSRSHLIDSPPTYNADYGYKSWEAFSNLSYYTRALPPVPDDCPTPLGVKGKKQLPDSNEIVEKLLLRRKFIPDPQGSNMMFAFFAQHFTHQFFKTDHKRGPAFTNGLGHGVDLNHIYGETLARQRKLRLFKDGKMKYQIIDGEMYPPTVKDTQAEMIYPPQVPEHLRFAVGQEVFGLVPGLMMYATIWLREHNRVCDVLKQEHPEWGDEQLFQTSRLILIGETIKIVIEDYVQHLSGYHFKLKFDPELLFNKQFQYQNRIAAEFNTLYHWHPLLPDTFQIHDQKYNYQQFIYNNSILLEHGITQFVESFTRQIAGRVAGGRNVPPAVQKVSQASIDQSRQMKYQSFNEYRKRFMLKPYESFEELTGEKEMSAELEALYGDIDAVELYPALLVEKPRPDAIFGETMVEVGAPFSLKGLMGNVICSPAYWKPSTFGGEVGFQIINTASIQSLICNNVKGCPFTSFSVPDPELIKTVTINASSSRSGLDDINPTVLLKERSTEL
Description: A 1.8 kb DNA fragment containing human COX-2 cDNA (Proc. Natl. Acad. Sci. U.S.A., vol. 89 (16), p. 7384-7388 (1992)) prepared by the PCR method was inserted into plasmid pFASTBAC1 (CIBCOBRAL) to obtain a plasmid pFBCOX2.
Using the plasmid pFBCOX2 and BAC-TO-BAC Baculovirus Expression System (GIBCOBRAL), a virus stock BAC-COX2 of the recombinant baculovirus was prepared.
Sf-21 cells were inoculated in 125 mL of LSf-900 II SFM medium (GIBCOBRAL) at a concentration of 1×10^6 cells/mL, and the medium was incubated at 27° C. for 24 hours. 0.75 mL of the virus stock BAC-COX2 of the recombinant baculovirus was added thereto, and was incubated further for 72 hours. The cells were separated from the medium by centrifugation (3000 rpm, 10 min), and washed with PBS twice. The cells were suspended in 10 mL of a Lysis buffer (0.1M Tris-HCl (pH 7.4), 5 mM EDTA), and were treated with a homogenizer (POLYTRON), three times at 20000 rpm for 20 seconds so that the cells were crushed. The supernatant thus obtained after centrifugation (2000 rpm, 10 minutes) was further centrifuged (40000 rpm, 45 minutes) to obtain a precipitate, which was resuspended in a Lysis buffer (0.1M Tris-HCl (pH 7.4), 5 mM EDTA), and the suspension was stored at −80° C.
(§1) Determination of COX-1 and COX-2 Inhibitory Activities
(§2) To a mixture of 20 μL of a reaction buffer previously concentrated 10 times (1M Tris-HCl (pH8.0), 50 mM EDTA, 1.0% Tween 20, 50 mM luminol, 100 μM hematin), 20 μL of the microsome fractions (COX-1: 40 μg, COX-2: 20 μg), and 55 μL of distilled water, a sample compound dissolved in DMF (5 μL) was added, and the mixture was left at 37° C. for 25 minutes. The reaction was started by the addition of 20 μM arachidonic acid (100 μL), and chemiluminescence amount during the 10-second period after the addition of arachidonic acid was determined by the use of Lumistar (BMG Lab technologies, GmbH). The inhibition rate was calculated, regarding that the enzyme activity when DMF ([…]) was added was 100%, and the enzyme activity when 4 mM flurbiprofen (5 μL) was added was 0%.

human COX-1 = target: T2, human COX-1 (Homo sapiens, UniProt P23219); assay: Determination of COX-1 inhibitory activity (microsome fraction, chemiluminescence); format: biochemical; conditions: microsome fraction 40 μg, arachidonic acid, 37° C. 25 minutes preincubation; read-out: Repression rate IC50 (μM) COX-1
T2 construct: made in house; host or cells: Sf-21 insect cells (recombinant baculovirus BAC-COX1, pFASTBAC1); microsome fraction
Description: A 1.8 kb DNA fragment containing human COX-1 cDNA (FASEB J., vol. 5 (9), p. 2304-2312 (1991)) prepared by the PCR method was inserted into plasmid pFASTBAC1 (CIBCOBRL) to obtain a plasmid pFBCOX1.
Using the plasmid pFBCOX1 and BAC-TO-BAC Baculovirus Expression System (GIBCOBRL), a virus stock BAC-COX1 of the recombinant baculovirus was prepared.
Sf-21 cells were inoculated in 125 mL of Sf-900 II SFM medium (GIBCOBRL) at a concentration of 1×10^6 cells/mL, and the medium was incubated at 27° C. for 24 hours. 0.75 mL of the virus stock BAC-COX1 of the recombinant baculovirus was added thereto, and the mixture was incubated further for 72 hours. The cells were separated from the medium by centrifugation (3000 rpm, 10 min), and washed with PBS twice. The cells were suspended in 10 mL of a Lysis buffer (0.1M Tris-HCl (pH 7.4), 5 mM EDTA), and were treated with a homogenizer (POLYTRON) three times at 20000 rpm for 20 seconds so that the cells were crushed. The supernatant obtained after centrifugation (2000 rpm, 10 minutes) was further centrifuged (40000 rpm, 45 minutes) to give a precipitate, which was resuspended in a Lysis buffer (0.1M Tris-HCl (pH 7.4), 5 mM EDTA), and the suspension was stored at −80° C.
as §1, §2

[3] = tested on: acetic acid induced rising and stretching; assay: Analgesic activity, acetic acid rising method; format: in vivo, ICR-mice; conditions: po, 20 min; 10 mg/kg orally, 30 minutes before 0.6% acetic acid i.p.; number of rising and stretching in 20 minutes; read-out: Repression rate (%) Dosage 10 mg/kg
Description: Analgesic Activity Acetic Acid Rising Method Male ICR-mice (5 weeks old, CLEA Japan) were used (1 group, n=10), and a sample was orally administered (0.2 mL/10 g, b.w.). After 30 minutes, 0.6% acetic acid solution was injected to mice intraperitoneally (0.1 mL/10 g, b.w.), and the mice were immediately transferred into an observation cage made of a transparent acrylic resin. The number of rising and stretching during the following period of 20 minutes was counted. The repression rate (%) was calculated by comparing the average numbers between the sample groups and the control groups.

yeast-induced pyrexia = assay: Antipyretic activity in yeast-induced pyrexia; format: in vivo, SD rats; conditions: 10 mg/kg orally; maximum difference in body temperature vs control over 6 hours
Description: Antipyretic Activity in Yeast-Induced Pyrexia Antipyretic activity was determined using male SD origin male-rats (7 weeks old, CLEA Japan, 1 group: n=6), according to the method of winter et. al. (J. Pharmacol. Exp. Ther., vol. 138, p. 405, 1963). Before 16 hours from measurement of body temperature, a suspension of 15% yeast in saline was injected subcutaneously (10 mL/kg, b.w.) into the rats to induce fever, and simultaneously supply of food was terminated while water was made available all the time. Each of the rats was raised separately. After 16 hours from the yeast shot, a thermistor terminal was inserted at an about 4 cm depth into rectum every hour, and the body temperatures after 30 seconds were recorded. After 18 hours, rats developing fevers consistently were selected, and a sample was orally administered to the rats (5 mL/kg, b.w.), while to the control, only the solvent was administered. After the administration, body temperatures were measured every hour for a period of 6 hours, and the maximum difference in body temperature between the rats in the sample group and in the control group were determined as Δ (° C.).

[4] = 2 hr after carrageenin injection, read-out: Repression rate (%) Dosage 10 mg/kg 2 hr later
[5] = 3 hr after carrageenin injection, read-out: Repression rate (%) Dosage 10 mg/kg 3 hr later

T2 sequence (P23219 24-599): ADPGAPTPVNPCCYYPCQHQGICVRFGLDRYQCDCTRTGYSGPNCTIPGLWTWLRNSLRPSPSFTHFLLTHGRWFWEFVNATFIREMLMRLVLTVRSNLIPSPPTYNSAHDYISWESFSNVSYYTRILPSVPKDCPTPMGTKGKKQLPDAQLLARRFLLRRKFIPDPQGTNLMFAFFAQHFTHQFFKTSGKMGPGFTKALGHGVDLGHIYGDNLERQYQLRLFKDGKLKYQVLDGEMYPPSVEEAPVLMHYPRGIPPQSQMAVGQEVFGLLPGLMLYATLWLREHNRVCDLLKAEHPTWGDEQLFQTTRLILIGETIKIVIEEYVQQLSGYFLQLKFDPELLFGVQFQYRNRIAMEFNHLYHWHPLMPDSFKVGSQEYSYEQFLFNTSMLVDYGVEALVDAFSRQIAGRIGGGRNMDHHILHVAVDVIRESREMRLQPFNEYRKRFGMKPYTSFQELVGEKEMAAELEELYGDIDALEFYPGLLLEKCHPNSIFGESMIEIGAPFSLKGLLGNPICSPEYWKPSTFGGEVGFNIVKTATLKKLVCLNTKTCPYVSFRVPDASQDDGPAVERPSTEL

Structure (SMILES): Cc1nn(-c2ccccn2)c2[nH]c3cc(F)ccc3c(=O)c12 [Example 2-83, 7-Fluoro-3-methyl-1-(2-pyridinyl)-1,9-dihydro-4H-pyrazolo[3,4-b]quinolin-4-one]
melting point: 260 to 261 °C
Repression rate (%) Dosage 10 mg/kg (adjuvant arthritis): 65* %

Structure (SMILES): Cc1nn(-c2ccccn2)c2[nH]c3ccc(C(F)(F)F)cc3c(=O)c12 [Example 2-40, 3-Methyl-1-(2-pyridinyl)-6-(trifluoromethyl)-l,9-dihydro-4H-pyrazolo[3,4-b]quinolin-4-one]
Total length of dyed spots (mm) [1]: 0 (100 mg/kg) mm

Structure (SMILES): Cc1nn(-c2ccccn2)c2nc3ccccc3c(OC(C)C)c12 [Example 2-18, 4-Isopropoxy-3-methyl-1-(2-pyridinyl)-1H-pyrazolo[3,4-b]quinoline]
Δ (° C.) Dosage 10 mg/kg (yeast-induced pyrexia): 1.7** ° C.
melting point: 93 to 96 °C
Repression rate (%) Dosage 10 mg/kg (adjuvant arthritis): 47%

Structure (SMILES): O=c1c2cc(Cl)ccc2[nH]c2c1cnn2-c1ccccn1 [Example 2-161, 6-Chloro-1-(2-pyridinyl)-1,9-dihydro-4H-pyrazolo[3,4-b]quinolin-4-one]
inhibition in vivo at 10 mg/kg [2, 4]: 33%
inhibition in vivo at 10 mg/kg [2, 5]: 33%
Δ (° C.) Dosage 10 mg/kg (yeast-induced pyrexia): 1.4** ° C.
melting point: 297 to 298 °C
inhibition in vivo at 10 mg/kg [3]: 74%

Further lines, with some results ahead:

IC50 (human COX-2): 44 µM
melting point: 241 to 244 °C
IC50 (human COX-1): 2 µM
Structure (SMILES): COC(=O)c1cccc2[nH]c3c(c(C)nn3-c3ccccn3)c(=O)c12 [Example 2-61, Methyl 3-methyl-4-oxo-1-(2-pyridinyl)-4,9-dihydro-1H-pyrazolo[3,4-b]quinoline-5-carboxylate]
inhibition in vivo at 10 mg/kg [2, 4]: 36%
inhibition in vivo at 10 mg/kg [2, 5]: 28%
inhibition in vivo at 10 mg/kg [3]: 75%

melting point: 278 to 280 °C
Structure (SMILES): Cc1nn(-c2ccccn2)c2[nH]c3ccc(F)cc3c(=O)c12 [Example 2-81, 6-Fluoro-3-methyl-1-(2-pyridinyl)-1,9-dihydro-4H-pyrazolo[3,4-b]quinolin-4-one]
Repression rate (%) Dosage 10 mg/kg (adjuvant arthritis): 56%

Total length of dyed spots (mm) [1]: 0 (100 mg/kg) mm
Structure (SMILES): Cc1nn(-c2ccccn2)c2[nH]c3ccccc3c(=O)c12 [Example 2-12, 3-Methyl-1-(2-pyridinyl)-1,9-dihydro-4H-pyrazolo[3,4-b]quinolin-4-one]
